In patent US8993721B2, “Peptides for targeting apoptotic cells and uses thereof” (Kyungpook National University Industry-Academic Cooperation …, priority 2008, dated 2015):
Entries after “also recorded” stand apart in the source; their conditions may differ. Where no end group is shown, it is not given here.

Legend:
apoptotic A549 cells [1] = assay: Competitive inhibition of binding to apoptotic cells by annexin V treatment (Example 3-2); format: cell-based, human; details: annexin V 1000 μM pre-treatment
Method: In order to further investigate the binding properties of the peptide of the present invention (ApoPep-1) to apoptotic cells, competitive inhibition by annexin V was measured. To this end, first, apoptotic A549 cells were pre-treated with annexin V, not labeled with fluorescence, at concentrations of 0, 200 and […]. Then, after reacting the cells with fluorescence-labeled annexin V under the same condition as described in Example <3-1>, the binding of the cells was observed under a fluorescence microscope.
Further, apoptotic A549 cells were pre-treated with annexin V, not labeled with fluorescence, at a concentration of 1000 μM. Then, after reacting the cells with fluorescence-labeled peptide under the same condition as described in Example <3-1>, the binding of the cells was observed under a fluorescence microscope.

[2] = test system: aorta of arteriosclerotic Ldlr(−/−) mouse; assay: Molecular imaging of arteriosclerosis (Example 5); format: in vivo
Method: An arteriosclerotic animal model was established by feeding mice, in which low-density lipoprotein (LDL) receptor was deficient (Ldlr(−/−)) genetically, with a high-cholesterol diet for 8 weeks. At the tail vein of the arteriosclerotic mouse and normal mouse, the peptide having an amino sequence represented by SEQ ID NO: 1 (ApoPep-1) or a control peptide, labeled with Cy7.5 NIR fluorescence, was injected at a final concentration of 50 μM, under isoflurane anesthesia. Two hours later, with the mouse anesthetized, in vivo images of the NIR fluorescence were obtained using an Optix exPlore instrument. Following the in vivo imaging, NIR fluorescence was measured […] after isolating the aorta.

[3] = test system: brain of stroke rat (middle cerebral artery occlusion/reperfusion); assay: Molecular imaging of stroke (Example 6); format: in vivo
Method: A stroke model was established by occluding the left middle cerebral artery of a rat for 2 hours, followed by reperfusion. Two hours after the reperfusion, the peptide having an amino sequence represented by SEQ ID NO: 1 (ApoPep-1) and a control peptide, labeled with Cy7.5 NIR fluorescence, was intravenously injected at a final concentration of 50 μM to the stroke rat and a normal rat through the tail vein, under isoflurane anesthesia. One and three hours after the intravenous injection, NIR images of the head portion were obtained. Further, NIR fluorescence images of the brains of the rats of the 3 hour group were obtained.

[4] = test system: heart of myocardial ischemic rat (ischemia/reperfusion model); assay: Molecular imaging of myocardial ischemia (Example 7); format: in vivo; details: Cy7.5-labeled peptide i.v. 2 hours after reperfusion; imaged 2 hours after injection
Method: A myocardial ischemia model was established by occluding the coronary artery of a rat, followed by reperfusion (ischemia/reperfusion model). For the operation, a rat was anesthetized by intra-abdominally injecting 10 mg of phenobarbital and, followed by endobronchial intubation, a ventilator was connected. Thereafter, the thorax was cut open to expose the heart. The left anterior descending coronary artery was occluded for 30 minutes using a suture and, then, the blood was allowed to circulate. For a control group (Sham), the same operation was performed, except for the occlusion. Two hours after the reperfusion, the peptide having an amino sequence represented by SEQ ID NO: 1 (ApoPep-1), labeled with Cy7.5 NIR fluorescence, was intravenously injected to the rats of the myocardial ischemia group and the control group. Two hours after the peptide injection, NIR images of the heart portion were obtained. Then, NIR images were obtained after isolating the heart.

[5] = test system: etoposide-treated apoptotic A549 cells; assay: Microscopic observation of binding of the peptide to apoptotic cells, A549 (Example 9-1); format: cell-based, human
Method: (§1) Cells were cultured in chamber slide (Nunc) and treated with 50 μM etoposide (Sigma) for 16 hours (A549 cells) or 50 ng/ml trail (R&D Systems) for 16 hours (MDA-MB231 cells) to induce apoptosis. The cells were cultured in RMPI-1640 medium (A549 cells) or DMEM-High (MDA-MB231 cells) containing antibiotics (penicillin and streptomycin) and 10% FBS. All the cells were sub-cultured every 3 or 4 days. The apoptosis-induced apoptotic cells were washed with PBS and blocked with 1% BSA at 37° C. for 30 minutes. Then, the cells were reacted with 10 μM of the peptide labeled with fluorescein, at 4° C. for 1 hour. After washing, the cells were reacted with an annexin V reaction buffer containing Alexa594-labeled annexin V (Invitrogen) at room temperature for 15 minutes. The cells were washed with PBS and then fixed with 4% paraformaldehyde for 5 minutes. After treatment with a mounting solution containing the DAPI nuclear stain, images of the cells were obtained under a fluorescence microscope.

[6] = test system: trail-treated apoptotic MDA-MB231 cells; assay: Microscopic observation of binding of the peptide to apoptotic cells, MDA-MB231 (Example 9-1); format: cell-based
Method: as §1

apoptotic A549 cells [7] = assay: Competitive inhibition of binding to apoptotic cells by annexin V treatment (Example 9-2); format: cell-based, human; details: annexin V 1000 μM pre-treatment
Method: In order to further investigate the binding properties of the polypeptide of the present invention (ApoPep-2) to apoptotic cells, competitive inhibition by annexin V was measured. To this end, first, apoptotic A549 cells were pre-treated with annexin V, not labeled with fluorescence, at concentrations of 0, 500 and 1000 μM. Then, after reacting the cells with fluorescence-labeled annexin V under the same condition as described in Example <9-1>, the binding of the cells was observed under a fluorescence microscope.
Further, apoptotic A549 cells were pre-treated with annexin V, not labeled with fluorescence, at a concentration of 1000 μM. Then, after reacting the cells with fluorescence-labeled peptide under the same condition as described in Example <9-1>, the binding of the cells was observed under a fluorescence microscope.

[8] = test system: necrosis-induced A549 cells (glucose-depleted medium); assay: Microscopic observation of binding of the peptide to necrotic cells (Example 9-4); format: cell-based, human; details: glucose-depleted medium 24 hours; 10 μM fluorescein-labeled peptide 4° C. 1 hour
Method: A549 Cells were cultured in chamber slide (Nunc) and treated with glucose-depleted medium for 24 hours to induce necrosis. The necrosis-induced cells were washed with PBS and blocked with 1% BSA at 37° C. for 30 minutes. Then, the cells were reacted with 10 μM of the peptide labeled with fluorescein, at 4° C. for 1 hour. After washing, the cells were reacted with […] Hoechst […] dye and […] PI at 37° C. for 15 minutes. The cells were washed with PBS and then fixed with 4% paraformaldehyde for 5 minutes.

[9] = test system: A549 tumor xenotransplanted in nude mice; assay: In vivo fluorescence imaging of targeting of apoptotic cells in tumor (Example 10); parameters: species or system mouse; details: fluorescein-labeled; large tumor (1 cm or larger)
[10] = Cy7.5-labeled peptide 50 μM i.v.
[11] = 10 μM peptide 4° C. 1 hour, Alexa594-annexin V

Substance	binding of fluorescence-labeled peptide after pre-treatment with unlabeled annexin V (apoptotic A549 cells [1])	NIR fluorescence imaged from the back, normal mouse ([2]; Cy7.5-labeled peptide 50 μM)	NIR fluorescence imaged from the back, arteriosclerotic mouse, compared with control peptide ([2]; Cy7.5-labeled peptide 50 μM, tail vein, two hours later)	NIR fluorescence after exposing the aorta by cutting the abdomen open, compared with control peptide ([2]; arteriosclerotic mouse)	intensity of the fluorescence relative to the control peptide ([2]; arteriosclerotic mouse, back image (FIG. 8B))	fluorescence of isolated brain of stroke rat ([3]; 3 hour group, left middle cerebral artery occluded)	NIR fluorescence at the head portion of the normal rat [3, 10]	NIR fluorescence at the head portion of the stroke rat at 3 hours [3, 10]	NIR fluorescence at the head portion of the stroke rat at 1 hour ([3]; Cy7.5-labeled peptide 50 μM i.v., 2 hours after reperfusion)	NIR fluorescence of the heart portion, myocardial ischemic rat versus control group (Sham) rat [4]	labeling of A549 cells not treated with etoposide [5, 11]	labeling of etoposide-treated apoptotic A549 cells ([5]; 50 μM etoposide 16 hours, 10 μM fluorescein-labeled peptide 4° C. 1 hour, Alexa594-annexin V)	location of peptide binding relative to annexin V binding (merge), A549 ([5]; etoposide-treated apoptotic cells)	labeling of trail-treated apoptotic MDA-MB231 cells ([6]; 50 ng/ml trail 16 hours, 10 μM fluorescein-labeled peptide 4° C. 1 hour, Alexa594-annexin V)	labeling of MDA-MB231 cells not treated with trail [6, 11]	location of peptide binding relative to annexin V binding (merge), MDA-MB231 ([6]; trail-treated apoptotic cells)	binding of fluorescence-labeled peptide after pre-treatment with unlabeled annexin V (apoptotic A549 cells [7])	labeling of glucose-depleted necrotic cells [8]	fluorescence signal from the tumor at 5 hours [9]
CQRPPR (also: fluorescein or Cy7.5 label) [ApoPep-1, peptide CQRPPR screened for macrophages; used fluorescein- or Cy7.5-labeled]	not inhibited	almost nonexistent	stronger NIR fluorescence	much stronger	about two times that of the control peptide	fluorescence was observed at the left hemisphere	almost nonexistent	very strong fluorescence	NIR fluorescence was observed	much stronger NIR fluorescence									
CSVAPR (also: fluorescein or Cy7.5 label) [ApoPep-2, peptide CSVAPR screened for endothelial cells; used fluorescein- or Cy7.5-labeled]											hardly bound to the untreated cells; also recorded: no labeling was observed	strongly bound to the apoptotic cells; also recorded: labeling was observed	at the same locations	strongly bound to the apoptotic cells; also recorded: labeling was observed	hardly bound to the untreated cells; also recorded: no labeling was observed	at the same locations	not inhibited	did not bind to the necrosis-induced cells; also recorded: no labeling was observed	strong fluorescence signal
